“Also recorded” adds a separate entry of the source. Where two headings read alike, the source gives them in different places.
What was measured:
[1] = tested on: retinal pigment epithelium (RPE); parameters: method as in PMID 22090477, PMID 25361751; settings: cited from earlier work
[2] = pKa determination by multiplexed capillary electrophoresis; assay type: physicochemical; settings: aqueous buffers
Method: All pKa values were determined at Analiza, Inc. by multiplexed capillary electrophoresis (mCE) using 96-capillary array electrophoresis instrument to measure the effective mobility (migration time of the compound in relation to neutral marker, DMSO) with ultraviolet detection. The pKa values were obtained from the ionization curves by plotting the compound effective mobility (24 points across pH range 1.7–11.2) versus pH. All pKa results were determined using aqueous buffers with method average absolute error 0.12.

CatD [3] = target: T1, CatD (Homo sapiens, UniProt P07339); assay: CatD purified enzyme fluorescence polarization assay; assay type: biochemical; parameters: final maturation into a non-covalently associated heavy chain and light chain; purchased Sigma C8696; host or cells: human liver; settings: for IC50: purified human enzyme, fluorescence polarization, substrate-based
Method: (§1) Purified enzyme inhibition of BACE1, BACE2, CatD and CatE was determined using fluorescence polarization (FP) assays. Briefly, purified enzymes were treated with test compounds (1% DMSO, 37 °C) in the presence of synthetic peptide substrates (150 nM) in 30 μl total volume of NaOAc buffer (100 mM, pH 4.5, 0.0001% Tween-20) in a 384-well plate. After incubation, reactions were stopped and substrate captured by the addition of 1.5 μM streptavidin, and FP measured with an EnVision plate reader (PerkinElmer, excitation 485 nm, emission 530 nm). […] BACE2 activity was assessed with 0.5 nM recombinant BACE2 (R&D Systems 4097-AS) and the same synthetic substrate used for BACE1, with a 1 h incubation time. […] CatE activity was assessed with 1.0 nM recombinant CatE (Creative BioMart CTSE-255H) and the same synthetic substrate used for CatD, with a 1.5 h incubation time.
Target sequence in this assay (P07339 65-162 limits assumed): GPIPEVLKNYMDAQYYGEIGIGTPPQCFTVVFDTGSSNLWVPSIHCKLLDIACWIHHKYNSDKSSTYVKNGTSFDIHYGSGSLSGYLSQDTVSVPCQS
Target sequence in this assay (P07339 169-412 limits assumed): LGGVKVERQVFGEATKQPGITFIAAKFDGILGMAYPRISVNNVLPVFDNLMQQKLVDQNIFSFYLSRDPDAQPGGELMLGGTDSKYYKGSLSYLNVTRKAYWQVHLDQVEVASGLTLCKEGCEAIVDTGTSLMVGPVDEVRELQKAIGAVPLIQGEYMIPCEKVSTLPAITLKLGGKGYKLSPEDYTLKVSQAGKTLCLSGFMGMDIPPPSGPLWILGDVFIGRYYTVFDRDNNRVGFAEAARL

BACE1 [4] = target: T2, BACE1 (Homo sapiens, UniProt P56817); assay: BACE1 biochemical cellular assay (sAPPβ ELISA in H4 cells overexpressing APP695); assay type: cell-based; parameters: endogenous in cells; host or cells: H4 human neuroglioma cells overexpressing human APP695; settings: for BACE1 potency increase in live cells: BACE1 enzyme IC50 versus BACE1 cellular IC50; for IC50: sAPPβ ELISA, H4 neuroglioma cells with human wild-type APP
Method: Cellular inhibition of BACE1 was determined by measuring sAPPβ, the primary cleavage product of BACE-1, in H4 human neuroglioma cells overexpressing the wild-type human APP695. […] The colorimetric reaction was read by an EnVision plate reader (PerkinElmer).
Target sequence in this assay (P56817 46-501): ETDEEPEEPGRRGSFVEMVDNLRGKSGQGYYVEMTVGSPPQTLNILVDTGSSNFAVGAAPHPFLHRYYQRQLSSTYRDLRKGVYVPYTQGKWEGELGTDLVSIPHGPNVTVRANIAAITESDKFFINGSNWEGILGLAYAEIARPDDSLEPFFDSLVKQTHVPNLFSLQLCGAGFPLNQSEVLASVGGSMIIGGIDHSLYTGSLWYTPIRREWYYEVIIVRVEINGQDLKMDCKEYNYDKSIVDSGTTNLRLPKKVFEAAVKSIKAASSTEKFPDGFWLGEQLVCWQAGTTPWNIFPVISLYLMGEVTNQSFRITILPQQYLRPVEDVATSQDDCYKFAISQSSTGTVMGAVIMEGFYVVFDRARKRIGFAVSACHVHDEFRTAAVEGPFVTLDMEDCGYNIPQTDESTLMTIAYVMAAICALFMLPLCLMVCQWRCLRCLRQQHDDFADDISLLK

CatD [5] = settings: read-out: IC50 against purified CatD in vitro; cited from earlier work
[6] = tested on: retinal pigment epithelium (RPE); assay: Exploratory toxicology, ocular toxicity by retinal histology in rats; assay type: in vivo; settings: for Female ocular toxicity incidence (positive or negative animals / total evaluated) / Female ocular toxicity outcome / Male ocular toxicity incidence (positive or negative animals / total evaluated) / Male ocular toxicity outcome: rat; for Ocular toxicity: 29-day studies with high daily doses
Method: (§2) Wistar Han rats (obtained from Charles River, 125–300 g, 6–9 weeks old at study start, see Supplementary Table 7 for number of males and females) received daily oral dosing of test compounds or vehicle at the indicated concentrations for 7–29 days as indicated. The doses were prepared in a solution of 0.5% methylcellulose and 0.2% polysorbate 80, or 0.5% methylcellulose and hydroxypropyl methylcellulose acetate succinate (high fine grade) and delivered in a volume of 10 ml kg^−1 per day. Blood samples for bioanalytical analysis were collected in K2EDTA tubes via jugular vessel. Plasma was isolated after centrifugation and stored at −20 °C prior to analysis. Animals were given an additional dose the day after the end of the study (days 8, 15 or 30 for 7, 14 and 29 day studies, respectively) then killed by gas anaesthesia (isoflurane) followed by exsanguination ∼3 h after this final dose.

CatD [7] = target: T1, CatD; assay: CatD cellular assay (competition of PF-7802 photolabelling in live ARPE-19 cells); assay type: cell-based; parameters: host or cells: ARPE-19; settings: for CatD potency increase in live cells: CatD enzyme IC50 versus CatD cellular IC50; for IC50: live ARPE-19 cells, PF-7802 photoprobe 100 nM, 30 min
Method: ARPE-19 cells were plated at a density of 1.2 × 10^6 cells per well in six-well dishes 12–24 h before probe labelling. Culture media was removed completely and replaced with 1 ml of the appropriate serum-free media (no supplements) per well. Cells were then pretreated with test compounds at the indicated concentrations for 30 min (0.5% DMSO, 37 °C, 5% CO2). […] Ultraviolet irradiation was performed without culture plate lids for efficient irradiation, and samples were slowly rotated to prevent evaporation. After ultraviolet irradiation, cells were washed twice with Dulbecco's phosphate-buffered saline (DPBS), scraped into DPBS, centrifuged and stored as pellets at −80 °C.
Cells were lysed with sonication on ice in 70 μl DPBS and protein concentrations were determined using a BCA assay (Pierce). Total protein concentrations were then normalized to 1 mg ml^−1 in 50 μl total volume before addition of 5.5 μl click chemistry mix (1 : 3 : 1 : 0.5 volume of 50 mM CuSO4 (Sigma) in H2O : 1.7 mM TBTA (Sigma) in 4:1 t-BuOH:DMSO : 50 mM TCEP (Hampton Research) in dPBS : 10 mM TAMRA-azide (Lumiprobe) in DMSO - mixed immediately before use. Reagent solutions can be premade and stored at 4 °C except for TCEP, which should be made immediately before use). […] All fluorescence gels are presented in greyscale.
Target sequence in this assay (P07339 169-412 limits assumed): as the sequence (P07339 169-412 limits assumed) above
Target sequence in this assay (P07339 65-162 limits assumed): as the sequence (P07339 65-162 limits assumed) above

[8] = Plasma exposure (average unbound plasma concentration) in rats; assay type: in vivo, rat; settings: Wistar Han, oral, rat, 29 days, average unbound plasma concentration, read-out: Avg Cp,u parent
Method: as §2
Plasma samples were analysed after protein precipitation by treating 20 μl of sample matrix with 200 μl of acetonitrile containing internal standard. All samples were centrifuged at 3,000 r.p.m. for 5 min. Then 100 μl of supernatant was transferred to a clean plate and evaporated to dryness under N2. Samples were reconstituted in 200 μl of 80:20 (v:v) acetonitrile:water. Samples were analysed on Waters Acquity UPLC connected to AB Sciex API5500 QTrap MS/MS.
Plasma protein binding was determined in the Rapid Equilibrium Device (RED, Thermo Scientific). Frozen plasma was warmed to 37 °C and adjusted to pH 7.4. The plasma was spiked with compound to a final concentration of 2 μM. Aliquots of spiked plasma were added to the donor (red) side, followed by addition of buffer to the receiver (white) side. The RED device was covered with a gas-permeable membrane and agitated within a humidified CO2 incubator (5% CO2, 75% relative humidity). Plasma (15 μl) and buffer (45 μl) were sampled from each insert and were matrix-matched with appropriate blank matrix (plasma with 45 μl buffer and buffer with 15 μl of plasma). Samples were protein-precipitated with acetonitrile containing internal standard, and the resulting supernatant was analysed by LC-MS/MS.

BACE2 = target: T3, BACE2 (Homo sapiens, UniProt Q9Y5Z0); assay: BACE2 purified enzyme fluorescence polarization assay; assay type: biochemical; settings: purified human enzyme, fluorescence polarization
T3 construct: purchased R&D Systems 4097-AS
T3 sequence (Q9Y5Z0 63-518): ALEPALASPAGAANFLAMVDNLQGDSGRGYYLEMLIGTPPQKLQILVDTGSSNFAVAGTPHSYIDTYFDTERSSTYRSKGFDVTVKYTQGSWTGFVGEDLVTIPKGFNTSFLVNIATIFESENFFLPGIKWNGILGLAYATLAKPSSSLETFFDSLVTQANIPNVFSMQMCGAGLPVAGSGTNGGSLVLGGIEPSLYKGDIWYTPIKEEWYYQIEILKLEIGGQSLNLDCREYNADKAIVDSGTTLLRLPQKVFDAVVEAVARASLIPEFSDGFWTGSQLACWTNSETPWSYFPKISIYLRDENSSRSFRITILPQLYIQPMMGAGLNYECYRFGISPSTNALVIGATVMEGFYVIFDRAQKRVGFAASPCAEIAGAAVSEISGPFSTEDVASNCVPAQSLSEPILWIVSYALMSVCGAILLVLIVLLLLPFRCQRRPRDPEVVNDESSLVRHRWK
Method: as §1

BACE1 [9] = target: T2, BACE1; assay: BACE1 purified enzyme fluorescence polarization assay; assay type: biochemical; parameters: His (C); made in house; host or cells: CHO-K1
Method: as §1
Target sequence in this assay (P56817 46-457): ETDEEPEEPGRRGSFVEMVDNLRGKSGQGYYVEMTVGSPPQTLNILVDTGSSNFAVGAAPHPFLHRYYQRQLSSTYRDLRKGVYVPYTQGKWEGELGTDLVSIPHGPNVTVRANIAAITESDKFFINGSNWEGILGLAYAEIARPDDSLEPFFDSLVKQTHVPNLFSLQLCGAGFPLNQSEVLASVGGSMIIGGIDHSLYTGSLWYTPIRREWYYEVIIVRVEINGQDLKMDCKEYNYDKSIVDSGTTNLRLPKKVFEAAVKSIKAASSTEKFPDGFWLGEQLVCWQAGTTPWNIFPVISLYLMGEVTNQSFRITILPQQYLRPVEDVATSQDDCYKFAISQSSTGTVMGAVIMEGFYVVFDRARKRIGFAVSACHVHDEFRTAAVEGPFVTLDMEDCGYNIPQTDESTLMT

CatD in ARPE-19 cells = CatD in ARPE-19 cells (Homo sapiens, UniProt P07339); assay: Live cell lysosome neutralization and PF-7802 labelling of CatD; settings: ammonium chloride 10 mM, 2 h or bafilomycin A1 400 nM, 4 h before labelling
Method: Immunoblots were scanned using a LiCor Odyssey. The integrated optical density of each in-gel fluorescence band was measured using ImageJ, and normalized to the CatD heavy chain protein level, also determined in ImageJ. For imaging experiments, cells were plated on coverslips and neutralized as described above. LysoSensor DND-189 (1 μM, Thermo Scientific) was then added for 30 min, followed by a 1 h washout in fresh culture media containing the neutralization reagents. Nuclei were stained with Hoescht 33342 for 5 min (20 μM, Thermo Fisher), and cells imaged live with a Zeiss LSM 780 Laser Scanning Confocal Microscope using a W Plan-Apochromat 63 × /1.0 M27 immersion objective. A 488 nm laser (10% laser power, detection from 490 to 552 nm) and 405 nm laser (6% laser power, detection from 410 to 468 nm) were used, respective detector gains set at 700 and 878, and 12-bit images acquired. Image processing was completed in ZEN lite 2012.

[10] = 29 days, 100 mg kg-1 once daily
[11] = purified human enzyme, fluorescence polarization, peptide substrate

Sequence of CatD in ARPE-19 cells (P07339 169-412 limits assumed): as the sequence (P07339 169-412 limits assumed) above
Sequence of CatD in ARPE-19 cells (P07339 65-162 limits assumed): as the sequence (P07339 65-162 limits assumed) above

Row | SMILES | BACE1 potency increase in live cells (BACE1 [4]) [x] | CatD potency increase in live cells (CatD [7]) [x] | IC50 (CatD [3]) [nM] | IC50 (BACE2) [nM] | IC50 (CatD [7]) [nM] | pKa [2] | IC50 (BACE1 [4]) [nM] | IC50 (BACE1 [9]; [11]) [nM] | also measured
1 | CC1(C#Cc2cnc3c(c2)[C@]2(COC(N)=N2)c2cc(-c4cccnc4F)ccc2O3)COC1 [AMG-8718, (S)-7-(2-Fluoropyridin-3-yl)-3-((3-methyloxetan-3-yl)ethynyl)-5′H-spiro[chromeno[2,3-b]pyridine-5,4′-oxazol]-2′-amine] | – | – | – | – | – | – | – | – | Ocular toxicity in preclinical animal models [1]: ocular toxicity in preclinical animal models
2 | NC1=N[C@@]2(c3cc(NC(=O)c4ccc(F)cn4)ccc3F)COC[C@H]2CS1 [LY2886721, reference compound] | 13 | > 15 | – | – | – | – | – | – | pKa ([2]; read-out: pKa): 7.6; Inhibition of purified CatD (CatD [3]; purified CatD biochemical substrate assay): inactive; IC50 (CatD [5]): > 100000 nM; Female ocular toxicity incidence (positive or negative animals / total evaluated) [6, 10]: 4/4; Female ocular toxicity outcome [6, 10]: Neg (negative (neg) if there was no ocular abnormality observed); Male ocular toxicity incidence (positive or negative animals / total evaluated) [6, 10]: 4/4; Male ocular toxicity outcome [6, 10]: Neg (negative (neg) if there was no ocular abnormality observed); Retinal finding by fluorescence microscopy ([6]; rats, 100 mg kg-1 daily, 29 days): no ocular abnormality was observed; Ocular toxicity ([6]; rats): negative for ocular toxicity; also recorded: no ocular findings; also recorded: no ocular toxicity; CatD potency difference between cell-free enzyme and cellular assays (CatD [7]): > 15 fold; concentration at 29 days ([8]; 100 mg kg-1 once daily): 3480 nM
3 | NC1=N[C@@]2(c3ccc(F)cc3F)CO[C@@H](C(=O)O)C[C@H]2[C@@H](CF)S1 [PF-2696] | – | – | > 20000 | > 20000 | > 20000 | – | – | – | IC50 (BACE1 [9]; purified enzyme): > 20000 nM
4 | NC1=N[C@@]2(c3ccc(F)cc3F)CO[C@@H](c3cc(CO)no3)C[C@H]2[C@@H](CF)S1 [PF-3763] | 4.8 | 17 | 16000 | 1600 | 940 | 7.0 | 80 | 380 | –
5 | NC1=N[C@@]2(c3ccc(F)cc3F)CO[C@@H](c3nc(CO)co3)C[C@H]2[C@@H](CF)S1 [PF-7152] | 7.2 | 64 | 37000 | 670 | 580 | 6.9 | 64 | 460 | –
6 | C[C@H]1SC(N)=N[C@@]2(c3ccc(F)cc3F)CO[C@@H](c3cc(CO)no3)C[C@@H]12 [PF-9159] | 12 | 150 | 17000 | – | 110 | 7.8 | 17 | 210 | –
7 | COc1cnc(C(=O)Nc2ccc(F)c([C@]3(C)CS(=O)(=O)N(C)C(N)=N3)c2)cn1 [SG1, reference compound] | 10 | > 34 | > 100000 | 17 | 2900 | – | 0.59 | 6 | pKa ([2]; read-out: pKa): 6.9; Female ocular toxicity incidence (positive or negative animals / total evaluated) ([6]; 29 days, 60 mg kg-1 once daily): 4/4; Female ocular toxicity outcome ([6]; 29 days, 60 mg kg-1 once daily): Neg (negative (neg) if there was no ocular abnormality observed); Male ocular toxicity incidence (positive or negative animals / total evaluated) ([6]; 29 days, 60 mg kg-1 once daily): 4/4; Male ocular toxicity outcome ([6]; 29 days, 60 mg kg-1 once daily): Neg (negative (neg) if there was no ocular abnormality observed); Ocular toxicity ([6]; rats): negative for ocular toxicity; also recorded: no ocular findings; also recorded: no ocular toxicity; BACE1 selectivity over CatD in cells (CatD [7]; cellular inhibition of BACE1 cleavage of APP versus inhibition of CatD labelling by PF-7802): > 2,000 fold; concentration at 29 days ([8]; 60 mg kg-1 once daily): 1560 nM
8 | Cl.N [ammonium chloride] | – | – | – | – | – | – | – | – | PF-7802 labelling of CatD after lysosome neutralization (CatD in ARPE-19 cells): significantly decreased labelling of CatD
9 | CO/C1=C\C(C)=C\[C@@H](C)[C@@H](O)[C@@H](C)C/C(C)=C/C=C/[C@H](OC)[C@@H]([C@@H](C)[C@@H](O)[C@H](C)[C@@]2(O)C[C@@H](O)[C@H](C)[C@@H](C(C)C)O2)OC1=O [bafilomycin A1] | – | – | – | – | – | – | – | – | PF-7802 labelling of CatD after lysosome neutralization (CatD in ARPE-19 cells): significantly decreased labelling of CatD

— PMC5062570 (Nature Communications, 2016)
